Each compound was assayed on K562 human leukemia cell line (assay: MTT anti-proliferative activity on K562 cell line). Conditions: structure-activity discussion.
Assay type: cell-based
COc1ccc(-c2cc(-c3ccc(OC)cc3)nc(N)n2)cc1 [1n, 4,6-Bis(4-methoxyphenyl)pyrimidin-2-amine] was tested, and the “anti-tumor activity against K562 cell line (in words)” value (shortened to “anti-tumor activity”) was “completely lost their anti-tumor activity”.
With COc1ccc(-c2cc(-c3cccc(OC)c3)nc(N)n2)cc1 [1i, 4-(4-Methoxy-phenyl)-6-(3-methoxy-phenyl)-pyrimidin-2-ylamine] the “anti-tumor activity” value was “completely lost their anti-tumor activity”.
In the case of COc1ccc(-c2cc(-c3ccccc3O)nc(N)n2)cc1 [1d, 2-(2-Amino-6-(4-methoxyphenyl)pyrimidin-4-yl)phenol], the “anti-tumor activity” value is reported as “completely lost their anti-tumor activity”.
Nc1nc(-c2ccc(Cl)cc2)cc(-c2ccccc2O)n1 [1f, 2-(2-Amino-6-(4-chlorophenyl)pyrimidin-4-yl)phenol] was tested, and the “anti-tumor activity” value was “significantly decreased the inhibitory activity”.
With COc1ccc(-c2cc(-c3ccc(Cl)cc3)nc(N)n2)cc1 [1p, 4-(4-Chlorophenyl)-6-(4-methoxyphenyl)pyrimidin-2-amine] the “anti-tumor activity” value was “significantly decreased the inhibitory activity”.
For COc1cccc(-c2cc(-c3ccc(Cl)cc3)nc(N)n2)c1 [1k, 4-(4-Chloro-phenyl)-6-(3-methoxy-phenyl)-pyrimidin-2-ylamine], the “anti-tumor activity” value was “significantly decreased the inhibitory activity”.

The compounds below were run on ABL1 tyrosine kinase (assay: ABL1 tyrosine kinase inhibition in K562 cells). Conditions: at a concentration of 30 μM.
Assay type: cell-based, human
For Nc1nc(-c2ccc(Br)cc2)cc(-c2ccccc2O)n1 [1e, 2-(2-Amino-6-(4-bromophenyl)pyrimidin-4-yl)phenol], the “inhibition of ABL1 production” value was 80%.
